Reference: PubChem BioAssay (NCI)
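Assay format: 96-well plates, 48-hour exposure. GI50: concentration for 50% inhibition of growth. TGI marks complete inhibition of growth.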

Legend:
Assay in all cases: NCI tumour cell line growth inhibition, 48 h
[1] = test system: MALME-3M melanoma
[2] = test system: HCT-15 colon
[3] = test system: SF-539 CNS
[4] = test system: PC-3 prostate
[5] = test system: OVCAR-3 ovarian
[6] = test system: SK-MEL-2 melanoma
[7] = test system: HT29 colon
[8] = test system: HOP-92 NSCLC
[9] = test system: MOLT-4 leukemia
[10] = test system: K-562 leukemia
[11] = test system: SNB-19 CNS
[12] = test system: MDA-MB-231 breast
[13] = test system: OVCAR-4 ovarian
[14] = test system: UACC-62 melanoma
[15] = test system: CAKI-1 renal
[16] = test system: T-47D breast
[17] = test system: DU-145 prostate
[18] = test system: SN12C renal
[19] = test system: U251 CNS
[20] = test system: RPMI-8226 leukemia
[21] = test system: NCI-H460 lung
[22] = test system: HS 578T breast
[23] = test system: HL-60(TB) leukemia
[24] = test system: HCC-2998 colon
[25] = test system: TK-10 renal
[26] = test system: NCI-H522 lung
[27] = test system: CCRF-CEM leukemia
[28] = test system: SF-295 CNS
[29] = test system: SK-MEL-5 melanoma
[30] = test system: UACC-257 melanoma
[31] = test system: EKVX NSCLC
[32] = test system: ACHN renal
[33] = test system: NCI/ADR-RES ovarian
[34] = test system: HOP-62 NSCLC
[35] = test system: IGROV1 ovarian
[36] = test system: UO-31 renal
[37] = test system: SW-620 colon
[38] = test system: OVCAR-8 ovarian
[39] = test system: MDA-MB-435
[40] = test system: SK-OV-3 ovarian
[41] = test system: OVCAR-5 ovarian
[42] = test system: LOX IMVI melanoma
[43] = test system: SF-268 CNS
[44] = test system: MCF7 breast
[45] = test system: NCI-H23 lung
[46] = test system: KM12 colon
[47] = test system: RXF 393 renal

In the case of `COc1ccc2c3c([nH]c2c1)C(=O)c1nc(C)ccc1C3=O`, the GI50 [1] is reported as 0.331 µM, the TGI [1] is reported as 1.65 µM and the GI50 [2] is reported as 1.94 µM. It also gave a TGI [2] greater than 100 µM, a GI50 [3] of 3.75 µM and a TGI [3] greater than 100 µM. For the same molecule, the GI50 [4] was 2 µM, the TGI [4] was greater than 100 µM and the GI50 [5] was 1.62 µM. It also gave a TGI [5] of 7.05 µM, a GI50 [6] of 7.04 µM and a TGI [6] greater than 100 µM. It also gave a GI50 [7] of 3.88 µM, a TGI [7] greater than 100 µM and a GI50 [8] of 20.7 µM. For the same molecule, the TGI [8] was greater than 100 µM, the GI50 [9] was 2.63 µM and the TGI [9] was greater than 100 µM. It also gave a GI50 [10] of 3.31 µM, a TGI [10] greater than 100 µM and a GI50 [11] of 2.61 µM. The TGI [11] was greater than 100 µM, the GI50 [12] was 3.33 µM and the TGI [12] was greater than 100 µM. It also gave a GI50 [13] of 2.06 µM, a TGI [13] greater than 100 µM and a GI50 [14] of 1.4 µM. For the same molecule, the TGI [14] was 3.08 µM, the GI50 [15] was 3.82 µM and the TGI [15] was greater than 100 µM. The GI50 [16] was 2.65 µM, the TGI [16] was greater than 100 µM and the GI50 [17] was 1.7 µM. It also gave a TGI [17] of 3.24 µM, a GI50 [18] of 3.24 µM and a TGI [18] greater than 100 µM. For the same molecule, the GI50 [19] was 4.85 µM, the TGI [19] was greater than 100 µM and the GI50 [20] was 2.91 µM. It also gave a TGI [20] greater than 100 µM, a GI50 [21] of 1.02 µM and a TGI [21] of 3.28 µM. It also gave a GI50 [22] of 13.6 µM, a TGI [22] greater than 100 µM and a GI50 [23] of 2.79 µM. It also gave a TGI [23] greater than 100 µM, a GI50 [24] of 3.81 µM and a TGI [24] greater than 100 µM. It also gave a GI50 [25] greater than 100 µM, a TGI [25] greater than 100 µM and a GI50 [26] of 3.83 µM. It also gave a TGI [26] greater than 100 µM, a GI50 [27] of 3.69 µM and a TGI [27] greater than 100 µM. For the same molecule, the GI50 [28] was 1.21 µM, the TGI [28] was 2.64 µM and the GI50 [29] was 0.792 µM. It also gave a TGI [29] of 2.2 µM, a GI50 [30] of 1.48 µM and a TGI [30] of 5.41 µM. It also gave a GI50 [31] of 2.68 µM, a TGI [31] greater than 100 µM and a GI50 [32] of 2.55 µM. For the same molecule, the TGI [32] was greater than 100 µM, the GI50 [33] was 2.75 µM and the TGI [33] was greater than 100 µM. It also gave a GI50 [34] of 3.5 µM, a TGI [34] greater than 100 µM and a GI50 [35] of 0.326 µM. The TGI [35] was greater than 100 µM, the GI50 [36] was 1.03 µM and the TGI [36] was greater than 100 µM. It also gave a GI50 [37] of 3.66 µM, a TGI [37] greater than 100 µM and a GI50 [38] of 3.35 µM. For the same molecule, the TGI [38] was greater than 100 µM, the GI50 [39] was 1.78 µM and the TGI [39] was 3.19 µM. For the same molecule, the GI50 [40] was greater than 100 µM, the TGI [40] was greater than 100 µM and the GI50 [41] was 4.42 µM. The TGI [41] was greater than 100 µM, the GI50 [42] was 2.24 µM and the TGI [42] was greater than 100 µM. It also gave a GI50 [43] of 7.8 µM, a TGI [43] greater than 100 µM and a GI50 [44] of 1.98 µM. The TGI [44] was greater than 100 µM, the GI50 [45] was 1.08 µM and the TGI [45] was 4.07 µM. For the same molecule, the GI50 [46] was 4.95 µM, the TGI [46] was greater than 100 µM and the GI50 [47] was 7.3 µM. For the same molecule, the TGI [47] was greater than 100 µM.
